Experiments:
[1] = system: SK-OV-3 cells transfected with ErbB2 siRNA; assay: SRB assay after ErbB2 siRNA transfection; assay type: cell-based, human; conditions: SK-OV-3, ErbB2 siRNA 50 nmol/L, AST1306 6.25 µmol/L (p<0.05) or 12.5 µmol/L (p<0.01)
Source text: (§1) Small interfering RNA (siRNA) against EGFR or ErbB2, as well as control siRNA, were designed and synthesized by Shanghai GenePharma Co. Ltd. One pair of ErbB2 siRNA (sequence: 5′ […] 3′), and two pairs of EGFR siRNA (#1 sequence: 5′ […] 3′; #2 sequence: 5′ […] 3′) were applied in this study. Different kind of siRNA (final concentration: 50 nmol/L) was transfected to SK-OV-3 cells with oligofectamine reagent (Invitrogen) according to the manufacturer's instruction.

NIH3T3 parental cells = assay: Cell proliferation SRB assay; assay type: cell-based; conditions: 72 h, compared with NIH3T3-EGFR T790M/L858R
Source text: SK-OV-3, BT474, MDA-MB-468, Calu-3, A-549, NCI-H23, NCI-H1975 and NIH3T3 cells were obtained from the American Type Culture Collection (Rockville, MD). HO-8910 cells were obtained from the cell bank of the Chinese Academy of Sciences. MCF-7 cells were obtained from the Japanese Foundation of Cancer Research. NIH3T3 cells that overexpressed EGFR T790M/L858R mutant (NIH3T3-EGFR T790M/L858R) were constructed and maintained in our laboratory. All cell lines were maintained in strict accordance with the supplier's instructions and established procedures.
(§2) Cell viability was determined using sulforhodamine B assay. IC50 values were determined based on the results of three independent experiments. […] Whole-cell lysates were assayed for total EGFR and phosphorylation of EGFR by immunoblotting. A representative anti-GAPDH immunoblot is shown as a loading control. […] Cell viability was determined using sulforhodamine B assay.
Cell proliferation was evaluated using the SRB (Sulforhodamine B) assay as previously described. Briefly, cells were seeded into 96-well plates and grown for 24 h. […] After cells were air-dried, protein-bound dye was dissolved in 150 μL of 10 mmol/L Tris base for 5 min and measured at 515 nm using a multiwell spectrophotometer (VERSAmax, Molecular Devices). […] The IC50 value was obtained by the Logit method and was determined from the results of at least 3 independent tests.

[2] = system: SK-OV-3 cells transfected with EGFR siRNA; assay: SRB assay after EGFR siRNA transfection; assay type: cell-based, human; conditions: SK-OV-3, two independent pairs of EGFR siRNAs
Source text: as §1

ErbB4 = ErbB4 (Homo sapiens, UniProt Q15303); conditions: ErbB4, cell-free; means ± SD
ErbB4, sequence (Q15303 26-1308, species assumed): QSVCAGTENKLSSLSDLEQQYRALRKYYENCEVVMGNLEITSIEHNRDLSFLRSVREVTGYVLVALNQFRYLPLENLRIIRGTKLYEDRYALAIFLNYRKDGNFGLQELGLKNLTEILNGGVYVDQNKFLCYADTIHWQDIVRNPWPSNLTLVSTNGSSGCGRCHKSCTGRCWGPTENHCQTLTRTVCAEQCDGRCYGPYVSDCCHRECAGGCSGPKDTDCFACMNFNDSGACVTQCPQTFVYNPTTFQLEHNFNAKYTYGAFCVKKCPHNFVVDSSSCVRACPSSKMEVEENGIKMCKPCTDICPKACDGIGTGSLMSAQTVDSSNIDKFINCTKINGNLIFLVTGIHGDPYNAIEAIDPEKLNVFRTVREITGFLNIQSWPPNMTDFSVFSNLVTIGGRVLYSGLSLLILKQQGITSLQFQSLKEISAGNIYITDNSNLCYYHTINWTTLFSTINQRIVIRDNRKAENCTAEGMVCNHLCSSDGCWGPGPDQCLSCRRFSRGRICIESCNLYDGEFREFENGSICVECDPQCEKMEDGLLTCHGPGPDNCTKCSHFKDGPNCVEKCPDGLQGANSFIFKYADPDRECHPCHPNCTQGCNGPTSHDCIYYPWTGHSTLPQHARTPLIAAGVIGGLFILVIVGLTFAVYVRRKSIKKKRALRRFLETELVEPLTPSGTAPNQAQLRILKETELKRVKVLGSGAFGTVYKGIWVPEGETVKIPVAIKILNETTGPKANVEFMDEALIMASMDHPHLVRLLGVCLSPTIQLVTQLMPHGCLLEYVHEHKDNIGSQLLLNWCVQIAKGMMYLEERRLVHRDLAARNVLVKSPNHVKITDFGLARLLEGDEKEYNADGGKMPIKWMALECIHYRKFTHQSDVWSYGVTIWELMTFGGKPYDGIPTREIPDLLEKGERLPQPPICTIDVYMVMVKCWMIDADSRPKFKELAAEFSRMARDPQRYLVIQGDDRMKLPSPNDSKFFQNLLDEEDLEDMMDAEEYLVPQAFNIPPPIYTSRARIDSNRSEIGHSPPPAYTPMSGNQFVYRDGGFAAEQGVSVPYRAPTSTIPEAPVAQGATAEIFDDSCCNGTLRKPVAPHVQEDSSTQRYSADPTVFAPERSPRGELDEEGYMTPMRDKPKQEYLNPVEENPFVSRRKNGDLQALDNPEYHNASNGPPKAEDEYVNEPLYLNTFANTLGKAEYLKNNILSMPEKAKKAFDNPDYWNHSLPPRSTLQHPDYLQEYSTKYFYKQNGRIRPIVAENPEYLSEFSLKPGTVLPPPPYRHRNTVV
Procedure: (§3) The tyrosine kinase activities were determined using enzyme-linked immunosorbant assay (ELISA). The serine/threonine kinase activities were detected by Caliper Mobility Shift Assay on EZ Reader (Caliper Life Sciences, MA) according to the instruction.
The tyrosine kinase activities were determined in 96-well ELISA plates (Corning, NY, USA) precoated with 20 μg/mL Poly (Glu,Tyr)4:1. First, 80 μL of 5 μM ATP solution diluted in kinase reaction buffer (50 mM HEPES pH 7.4, 20 mM MgCl2, 0.1 mM MnCl2, 0.2 mM Na3VO4, 1 mM DTT) was added to each well. […] Subsequently, the kinase reaction was initiated by the addition of purified tyrosine kinase proteins diluted in 10 μL of kinase reaction buffer solution. Experiments at each concentration were performed in duplicate. After incubation for 60 min at 37 °C, the plate was washed three times with phosphate buffered saline (PBS) containing 0.1% Tween 20 (T-PBS). Next, 100 μL anti-phosphotyrosine antibody (PY99, 1:500 dilution) diluted in T-PBS containing 5 mg/mL BSA was added. After 30 min incubation at 37 °C, the plate was washed three times as before. Horseradish peroxidase-conjugated goat anti-mouse IgG (100 μL) diluted 1:2000 in T-PBS containing 5 mg/ml BSA was added. The plate was reincubated at 37 °C for 30 min, and then washed with PBS.

SK-OV-3 cells [3] = assay: Anchorage-independent growth on soft agar; assay type: cell-based, human; conditions: two weeks
Procedure: The culture was maintained at 37°C in a 5% CO2 atmosphere for two weeks. The average colony number was calculated and colonies were photographed. Columns, mean of triplicate samples; bars, SE. Significant differences were evaluated using the Student's test (*P<0.05; ** P<0.01). (TIF) Click here for additional data file. Anchorage-independent cell transformation assay. Cell transformation was detected in SK-OV-3 and A549 cells, respectively. […] The culture were maintained in a 37°C, 5% CO2 incubator for 1-2 weeks, and the cell colonies were scored using a microscope and the Image-Pro PLUS computer software program (Media Cybernetics, Silver Spring, MD). Data are shown as means ± SD of values from triplicate experiments and the asterisk (*) indicates a significant (*P<0.05, ** P<0.01) decrease in colony number compared to untreated control.

NCI-H23 cells = assay: Cell proliferation SRB assay; assay type: cell-based; conditions: Homo sapiens, NCI-H23, 72 h, range given for four cell lines together, read-out: IC50 (antiproliferative)
Procedure: (§4) Cell proliferation was evaluated using the SRB (Sulforhodamine B) assay as previously described. Briefly, cells were seeded into 96-well plates and grown for 24 h. […] The medium remained unchanged until the completion of the experiment. The cells were then fixed with 10% precooled trichloroacetic acid (TCA) for 1 h at 4°C and stained for 15 min at room temperature with 100 μL of 4 mg/mL SRB solution (Sigma) in 1% acetic acid. The SRB was then removed, and the cells were quickly rinsed five times with 1% acetic acid. After cells were air-dried, protein-bound dye was dissolved in 150 μL of 10 mmol/L Tris base for 5 min and measured at 515 nm using a multiwell spectrophotometer (VERSAmax, Molecular Devices). […] The IC50 value was obtained by the Logit method and was determined from the results of at least 3 independent tests.

SK-OV-3 cells [4] = assay: Cell proliferation SRB assay; assay type: cell-based; conditions: Homo sapiens, SK-OV-3, 72 h, range given for four cell lines together, read-out: IC50 (antiproliferative)
Procedure: as §4

MDA-MB-468 cells = assay: Cell proliferation SRB assay; assay type: cell-based; conditions: Homo sapiens, MDA-MB-468, 72 h, range given for four cell lines together, read-out: IC50 (antiproliferative)
Procedure: as §4

[5] = system: phosphorylation of EGFR and downstream pathways in NCI-H1975 cells; assay: Western blot of EGF-induced phosphorylation; assay type: cell-based, human
Procedure: as §3
as §2, with “immunoblotting.” for “immunoblotting. A representative anti-GAPDH immunoblot is shown as a loading control.”

C=CC(=O)Nc1ccc2ncnc(Nc3ccc(OCc4cccc(F)c4)c(Cl)c3)c2c1 [AST1306]
sensitivity to antiproliferative effect after ErbB2 knockdown [1]: significantly more resistant | inhibition of cell growth (NIH3T3 parental cells): much less potent | antiproliferative activity after EGFR knockdown [2]: did not significantly affect | IC50 (ErbB4): 0.0008 ± 0.0003 µM | anchorage-independent growth on soft agar (SK-OV-3 cells [3]): dramatically inhibit the growth | IC50 (NCI-H23 cells): 6.2 to 7.5 µM | IC50 (SK-OV-3 cells [4]): 6.2 to 7.5 µM | IC50 (MDA-MB-468 cells): 6.2 to 7.5 µM | inhibition of phosphorylation of EGFR and downstream pathways [5]: blocked phosphorylation of EGFR and downstream pathways
